# According to article PMC9218960 (ACS infectious diseases, 2020):
# Substitutions are numbered along the chain they refer to.
# Experiments:
# Assay type in all cases: cell-based
# WT PfENT1 = target: T1, WT PfENT1 (Plasmodium falciparum, UniProt Q8IDM6); experiment: [3H]uridine uptake inhibition by purines in PfENT1-expressing yeast
# T1 sequence (Q8IDM6 1-422): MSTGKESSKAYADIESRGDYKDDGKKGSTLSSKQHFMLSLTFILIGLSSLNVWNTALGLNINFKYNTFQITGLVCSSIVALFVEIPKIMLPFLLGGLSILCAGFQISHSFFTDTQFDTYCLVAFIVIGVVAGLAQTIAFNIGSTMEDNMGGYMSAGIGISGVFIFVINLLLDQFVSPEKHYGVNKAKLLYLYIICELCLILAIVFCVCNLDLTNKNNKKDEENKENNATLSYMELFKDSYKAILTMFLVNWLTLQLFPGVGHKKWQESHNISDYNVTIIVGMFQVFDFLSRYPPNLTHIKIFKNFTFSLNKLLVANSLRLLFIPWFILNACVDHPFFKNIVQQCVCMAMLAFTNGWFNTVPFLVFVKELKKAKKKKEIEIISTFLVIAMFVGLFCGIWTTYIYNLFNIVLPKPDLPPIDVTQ
# PfENT1 L197F = target: T2, PfENT1 L197F (Plasmodium falciparum, UniProt Q8IDM6, L197F); experiment: [3H]uridine uptake inhibition by purines in PfENT1-SNP-expressing yeast
# T2 sequence (Q8IDM6 1-422 L197F): T1 sequence (Q8IDM6 1-422) with L197F
# PfENT1 S317T = target: T3, PfENT1 S317T (Plasmodium falciparum, UniProt Q8IDM6, S317T); experiment: as above
# T3 sequence (Q8IDM6 1-422 S317T): T1 sequence (Q8IDM6 1-422) with S317T
# PfENT1 L385I = target: T4, PfENT1 L385I (Plasmodium falciparum, UniProt Q8IDM6, L385I); experiment: as above
# T4 sequence (Q8IDM6 1-422 L385I): T1 sequence (Q8IDM6 1-422) with L385I
# PfENT1 F394L = target: T5, PfENT1 F394L (Plasmodium falciparum, UniProt Q8IDM6, F394L); experiment: as above
# T5 sequence (Q8IDM6 1-422 F394L): T1 sequence (Q8IDM6 1-422) with F394L
# PfENT1 V129I/L133F = target: T6, PfENT1 V129I/L133F (Plasmodium falciparum, UniProt Q8IDM6, L133F/V129I); experiment: as above
# T6 sequence (Q8IDM6 1-422 V129I/L133F): T1 sequence (Q8IDM6 1-422) with V129I, L133F
Compound,IC50 (WT PfENT1),IC50 (PfENT1 L197F),IC50 (PfENT1 S317T),IC50 (PfENT1 L385I),IC50 (PfENT1 F394L),IC50 (PfENT1 V129I/L133F)
"Nc1ncnc2nc[nH]c12 [Adenine, adenine]",475 ± 124 µM,46 ± 5 µM,205 ± 49 µM,185 ± 15 µM,1500 ± 227 µM,930 ± 285 µM
"O=c1[nH]cnc2nc[nH]c12 [Hypoxanthine, hypoxanthine]",178 ± 44 µM,282 ± 8 µM,175 ± 31 µM,173 ± 46 µM,837 ± 93 µM,360 ± 66 µM
"OC[C@H]1O[C@@H](n2cnc3c(O)ncnc32)[C@H](O)[C@@H]1O [Inosine, inosine]",20 ± 7 µM,37 ± 12 µM,28 ± 2 µM,58 ± 17 µM,94 ± 29 µM,20 ± 7 µM
